Measurements as given in PMC4197335, “Cancer-Selective Targeting of the NF-κB Survival Pathway with GADD45β/MKK7 Inhibitors” (Cancer Cell, 2014).
Where a SMILES comes first, the peptide text is derived from it. [ ]: non-standard residue; d: D form. The star is where a group is joined. Cbz = O=C(OCc1ccccc1)*

Assays:
U266 MM cells = settings: read-out: IC50 (U266 cells); Table S3; day 6; [3H]thymidine incorporation or trypan blue exclusion
GADD45β/MKK7 complex = molecular target: T1, GADD45β/MKK7 complex (Homo sapiens, UniProt O14733); test: ELISA GADD45β/MKK7 competition assay; type: binding; settings: for inhibition at 0.01 µM / IC50: Table S3; for inhibition at 0.01 µM: peptide at 10 nM, read-out: % inhibition (ELISA); for IC50: read-out: IC50 (ELISA); for % inhibition (ELISA): Table S2, peptide at 42 nM
T1 construct: Full-length human (h)MKK7 was expressed as a protein fused to an N-terminal GST tag (GST-MKK7); made in house
T1 sequence (O14733 1-419): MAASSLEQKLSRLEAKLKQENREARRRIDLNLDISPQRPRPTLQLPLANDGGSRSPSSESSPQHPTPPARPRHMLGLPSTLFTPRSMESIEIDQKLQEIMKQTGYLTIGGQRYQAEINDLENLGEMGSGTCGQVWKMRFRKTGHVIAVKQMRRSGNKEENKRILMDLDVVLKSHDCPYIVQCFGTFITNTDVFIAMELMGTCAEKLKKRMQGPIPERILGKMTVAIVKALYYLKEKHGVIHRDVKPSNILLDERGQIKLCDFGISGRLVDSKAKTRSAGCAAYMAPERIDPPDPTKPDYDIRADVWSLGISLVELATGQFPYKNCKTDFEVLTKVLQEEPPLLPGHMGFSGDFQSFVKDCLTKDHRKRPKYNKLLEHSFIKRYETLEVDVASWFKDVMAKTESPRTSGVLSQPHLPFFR
Description: Additional details are provided in Supplemental Experimental Procedures.
(1:1,000) and the HRP chromogenic substrate, o -phenylenediamine (OPD). GST -coated wells wer e […]
The ELISA competition screen used f or the isolation of antagonists of the GADD45β /MKK7 […]
The library deconvolution strategy used for this screen was described previously […]
General information about this type of screens can be found elsewhere […]
Values were expressed as the percentage of inhibition of His6-hGADD45β binding to GST-hMKK7 relative to the binding measured in the absence of […]
Dose-response, ELISA GADD45β /MKK7 competition assays were carried out under similar […]
As part of the SAR analysis and lead optimization process, where appropriate, competitors were tested at a concentration up to 100 nM. In order to determine their stability in biolog ical f luids , peptides were incubated at the concentration of 10 µM in […]
calculated using at least 7 concentrations of peptide and def ined as the mean concentration of peptide […]
the absence of competitor. W here indicated, values were expressed as the percentage of inhibition of His 6 -hGADD45β binding to GST-hMKK7 relative to the binding measured in the absence of competitor.
GST was used as a control in all the experiments. […]
tetrapeptide used as negative control in some of the ELISA and cellular assays was as f ollows: z -DNC, z-T yr -Asp-His-Gln-NH 2 . […]

[1] = pharmacokinetics after single intravenous injection
Procedure: The pharmacokinetic analyses of DTP3 and z-DTP2 were outsourced. Additional details are provided in Supplemental Experimental Procedures. […]
Pharmacokinetic Anal yses
In vitro and in vivo pharmacok inetic analyses were outsourced to Cypr ot ex (http://www.c yprotex.com/home/) (Figure 7A, Tables S6). In vitro pharmacok inetic assays were perf ormed according to established, in- house protocols and included: plasma stability (human), thermodynamic solubility (PBS pH 7.4, at 37 °C f or 14 days), microsomal stability (human), plasma protein binding (PPB; mouse and human), and distribution coeff icient (LogD). In vivo pharmacok inetic […]
analyses were also perf ormed at Cyprotex according to established, in- house protocols. Brief ly, the peptides were dissolved in PBS and administered by single intravenous injection t o CD1 male mice at the dose of 10 mg/kg (25 -30 g of total body weight; n=3 mice per time point per compound) . Blood samples were collected in heparinized tubes at up to 7 tim e points after this injection (i.e. 0.08, 0.25, 0.5, 1, 2, 4 and 8 hr), and the plasma concentrations of the test peptide were determined at each time point by LC-MS/ MS, using a f ive- point standard curve covering a peptide concentration range from 3 to 3,000 ng/mL. Standard curves were prepared using blank plasma matrices and treated in the same manner as the test samples. The main pharmacok inetic parameters determined in these analyses were: terminal half-lif e (t 1/2 ), plasma clearance (CL), volume of distribution (V d ), and area under the plasma concentration versus time curve (AUC) (Figure 7A, Table S6). Values were calculated from the data of the peptide plasma concentration versus time curves using a non-compartmental model analysis, as described elsewhere (Groulx, 2006; Landaw and Di Stef ano 3rd, 1982) . […]

inhibition at 0.01 µM (GADD45β/MKK7 complex) [%] | % inhibition (ELISA) (GADD45β/MKK7 complex) [%] | Compound | other results
12 | – | NC(=O)CC[C@@H](NC(=O)[C@@H](Cc1c[nH]cn1)NC(=O)[C@@H](CC(=O)O)NC(=O)[C@@H](Cc1ccc(O)cc1)NC(=O)OCc1ccccc1)C(N)=O [z-DNC, z-YDHQ-NH2] (Cbz-[dY][dD][dH][dQ]-NH2) | –
84 | – | NC(=O)[C@@H](Cc1ccccc1)NC(=O)[C@@H](Cc1c[nH]cn1)NC(=O)[C@@H](CC(=O)O)NC(=O)[C@@H](Cc1ccc(O)cc1)NC(=O)OCc1ccccc1 [z-DTP1, z-YDHF-NH2] (Cbz-[dY][dD][dH][dF]-NH2) | –
84 | – | COC(=O)C[C@@H](NC(=O)[C@@H](Cc1ccc(O)cc1)NC(=O)OCc1ccccc1)C(=O)N[C@H](Cc1c[nH]cn1)C(=O)N[C@H](Cc1ccccc1)C(N)=O [z-YD(O-methyl)HF-NH2] (Cbz-[dY][dD](OMe)[dH][dF]-NH2) | IC50 (GADD45β/MKK7 complex): > 10 nM
3 | – | COC(=O)C[C@@H](NC(=O)[C@@H](Cc1ccc(O)cc1)NC(=O)OCc1ccccc1)C(=O)N[C@H](Cc1c[nH]cn1)C(=O)N[C@H](CCC(N)=O)C(N)=O [z-YD(O-methyl)HQ-NH2] (Cbz-[dY][dD](OMe)[dH][dQ]-NH2) | IC50 (GADD45β/MKK7 complex): > 10 nM
– | 50 | Ac-WDHW-NH2 | –
– | 45 | Ac-WDRF-NH2 | –
– | 35 | Ac-WEHF-NH2 | –
– | 57 | Ac-YDHW-NH2 | –
– | 34 | Ac-YDKF-NH2 | –
– | 45 | Ac-YDRF-NH2 | –
– | 43 | Ac-YDRW-NH2 | –
– | 52 | Ac-YEHF-NH2 | –
– | 27 | Ac-YERW-NH2 | –

Compound | inhibition at 0.01 µM (GADD45β/MKK7 complex) [%] | % inhibition (ELISA) (GADD45β/MKK7 complex) [%] | other results
CCCCCCCCCCCCCC(=O)N[C@H](Cc1ccc(O)cc1)C(=O)N[C@H](CC(=O)O)C(=O)N[C@H](Cc1c[nH]cn1)C(=O)N[C@H](CCC(N)=O)C(N)=O [Myr-YDHQ-NH2] | 28 | – | IC50 (U266 MM cells): > 10000 nM; IC50 (GADD45β/MKK7 complex): > 10 nM
CCCCCCCCCCCCCC(=O)N[C@H](Cc1ccc(O)cc1)C(=O)N[C@H](CCC(=O)O)C(=O)N[C@H](CCCNC(=N)N)C(=O)N[C@H](Cc1ccccc1)C(N)=O [Myr-YERF-NH2] | 37 | – | IC50 (U266 MM cells): > 10000 nM; IC50 (GADD45β/MKK7 complex): > 10 nM
N=C(N)NCCC[C@@H](NC(=O)[C@@H](CCC(=O)O)NC(=O)[C@@H](Cc1ccc(O)cc1)NC(=O)OCc1ccccc1)C(=O)N[C@H](Cc1ccccc1)C(N)=O [z-DTP2, z-YERF-NH2] (Cbz-[dY][dE][dR][dF]-NH2) | 95 | – | predicted dose required to achieve the therapeutic plasma concentration of 1 μM at the steady state ([1]; k0 = k1 x Vd x Cp): 3.61 mg/kg/h; AUC ([1]; mouse, in vivo, iv, 10 mg/kg): 2060 ± 250 ng·h/mL; Vd ([1]; mouse, in vivo, iv, 10 mg/kg): 14.6 ± 2.23 L/kg; clearance ([1]; mouse, in vivo, iv, 10 mg/kg): 78.1 ± 11.7 mL/min/kg; half-life ([1]; mouse, in vivo, iv, 10 mg/kg): 2.09 ± 0.07 h
